# Test results taken from patent US10584127B2, “3,3-difluoropiperidine carbamate heterocyclic compounds as NR2B NMDA receptor antagonists” (Rugen Holdings (Cayman) Limited, priority 2015, dated 2020).
# Tests used:
# cloned human NR1/NR2A = cloned human NR1/NR2A (Homo sapiens (Human), UniProt Q12879); assay: NR2A antagonist activity, Fluo-4 calcium influx in HEK293 cells; format: cell-based; settings: glutamate 100 μM, glycine 50 μM
# Method: Activation of the NR2A or NR2B subtype of NMDA receptor with glutamate as an agonist and glycine co-agonist on these cells results in calcium influx, which can be monitored with fluorescent indicator Fluo-4.
# For experiments, the cells were seeded onto poly-D-lysine-coated 96-well black plates with clear bottom (Corning) at a density of ^˜50,000 cells/well. After overnight culture, the growth medium was removed from the wells and the cells were incubated at 37° C. for 60 min in Hanks buffer containing 4 μM fluo-4-AM (Invitrogen) and 0.1% bovine serum albumin (BSA). After dye-loading, the cells were washed three times with Hanks buffer and incubated for 10 min at room temperature with various concentrations of test compounds prepared in Hanks buffer with 0.1% BSA. The cell plates were placed onto FDSS μCell fluorescence reader (Hamamatsu). After 20 sec reading of background fluorescence, agonist glutamate at final 100 μM and co-agonist glycine at final 50 μM were added to the cells to activate the receptor, and the resulting fluorescence changes were recorded and quantified. Based on the changes in fluorescence intensity, the pharmacological effect of test compounds were analyzed and the IC50 values derived from a non-linear least squares fitting of the concentration-dependent response to a standard logistic equation using Prism (Graphpad, Inc): Amplitude=Max Amplitude/(1+(IC50/[antagonist])^n).
# [1] = test system: NMDA receptor (all subtypes), native rat brain receptors; assay: [3H] MK-801 radioligand binding assay, rat brain membranes; settings: 2 nM [3H] MK-801, rat brain membranes
# Method: This example describes NMDA receptor binding assays using two different radioligands, [^3H] […] An established binding assay using the non-selective NMDA receptor ligand [^3H] […] The binding assay method using the NR2B selective receptor ligand [^3H] […] This assay serves as a selective measure of NR2B receptor binding activity in native rat brain receptors. Briefly, the brains of Male Wistar rats were homogenized (Polytron) before centrifugation at 40,000×g for 15 minutes at 4° C. After 2 washes, the final pellet was homogenized and stored at −80° C. The protein concentration was determined by Bradford assay.
# Test compounds were solubilized at 10 mM in DMSO. Then the dilutions were performed with a constant solvent concentration (1% DMSO) in the assay.
# After incubation for 4.5 h at room temperature, the assays were filtered on GF/B filters pretreated with 0.3% (v/v) PEI with a Brandel system for [^3H] […] The experiment was performed in duplicate (n=2).
# [2] = test system: pentylenetetrazole-induced convulsions; assay: Pentylenetetrazole (PTZ) Seizure Test; format: in vivo, rats; settings: 10 mg/kg p.o., mesylate salt, PTZ 100 mg/kg s.c.
# Method: Rats, placed in individual macrolon cages (25×19×13 cm), were injected with pentylenetetrazole (PTZ) (100 mg/kg s.c.). The occurrence and latency of clonic and tonic convulsions and death were noted over a 30 minute period. 15 rats were studied per group. The test was performed blind.
# Test compound E1-8.2 was administered as the free base.
# Compounds were evaluated typically using 0.5% dimethylsulfoxide, 4% hydroxypropyl-b-cyclodextrin water as a vehicle at 1 or more doses (e.g., 1, 3 and 10 mg/kg), administered p.o. 30 minutes before PTZ, and compared with a vehicle control group. Diazepam (16 mg/kg p.o.), administered 60 minutes before PTZ, was used as reference substance. The experiment was performed over 2 separate sub-experiments with N=7 to 8 animals per group and per sub-experiment. Quantitative data (latencies) with the test substance was analyzed by comparing treated groups with vehicle control using Kruskal-Wallis test followed by Mann-Whitney U test. Quantitative data with the reference substance was analyzed using Mann-Whitney U test. Quantal data (frequencies) was analyzed by comparing treated groups with vehicle control using Fisher's Exact Probability tests (*=p<0.05; **=p<0.01; ***=p<0.001).
# [3] = test system: electroconvulsive threshold (tonic convulsions); assay: Electroconvulsive Threshold Test (ECT); format: in vivo, rats; settings: rats, 3, 10 and 30 mpk p.o., mesylate salt
# Method: Rats were administered ECS (rectangular current: 0.6 ms pulse width, 1.5 s duration, 200 Hz) via earclip electrodes connected to a constant current shock generator (Ugo Basile: type 7801). Test compounds were administered by oral gavage (p.o.) 1 hour before the test at a dose volume of 5 mL/kg.
# Treatment groups of 20 rats were exposed to ECS as follows: The first animal was exposed to 30 mA of ECS. […] (increases of 5 mA) until the first tonic convulsion was observed. Once the first tonic convulsion was observed, the intensity of ECS was decreased by 2 mA for the next animal and then decreased or increased by 2 mA from animal to animal depending on whether the previous animal convulsed or not. If the first animal did convulse (tonic convulsions) within 5 seconds, animal n°2 is exposed to 25 mA, etc . . . (decreases of 5 mA) until the absence of tonic convulsions was observed. At this point, the intensity of ECS was increased by 2 mA for the next animal and then decreased or increased by 2 mA from animal to animal depending on whether the previous animal convulsed or not. The minimum current intensity applied is 5 mA and the maximum 95 mA. The first 5 animals serve to approach threshold current and were not included in the analysis. The results are presented as the mean current intensity administered to the final 15 animals of a group. The test was performed blind. A positive percent change indicates an anticonvulsant effect. A negative percent change indicates a proconvulsant effect. The test substance was evaluated at 4 doses, typically using 0.5% dimethylsulfoxide, 4% hydroxypropyl-b-cyclodextrin water as a vehicle, and administered p.o. 60 minutes before ECS, and compared with a vehicle control group. Diazepam (16 mg/kg p.o.), administered under the same experimental conditions, was used as reference substance. The experiment included 6 groups. Data with the test substance was analyzed by comparing treated groups with vehicle control using one-way ANOVA followed by Dunnett's t tests.
# Chain of cloned human NR1/NR2A (Q12879 23-1464, other chains not shown): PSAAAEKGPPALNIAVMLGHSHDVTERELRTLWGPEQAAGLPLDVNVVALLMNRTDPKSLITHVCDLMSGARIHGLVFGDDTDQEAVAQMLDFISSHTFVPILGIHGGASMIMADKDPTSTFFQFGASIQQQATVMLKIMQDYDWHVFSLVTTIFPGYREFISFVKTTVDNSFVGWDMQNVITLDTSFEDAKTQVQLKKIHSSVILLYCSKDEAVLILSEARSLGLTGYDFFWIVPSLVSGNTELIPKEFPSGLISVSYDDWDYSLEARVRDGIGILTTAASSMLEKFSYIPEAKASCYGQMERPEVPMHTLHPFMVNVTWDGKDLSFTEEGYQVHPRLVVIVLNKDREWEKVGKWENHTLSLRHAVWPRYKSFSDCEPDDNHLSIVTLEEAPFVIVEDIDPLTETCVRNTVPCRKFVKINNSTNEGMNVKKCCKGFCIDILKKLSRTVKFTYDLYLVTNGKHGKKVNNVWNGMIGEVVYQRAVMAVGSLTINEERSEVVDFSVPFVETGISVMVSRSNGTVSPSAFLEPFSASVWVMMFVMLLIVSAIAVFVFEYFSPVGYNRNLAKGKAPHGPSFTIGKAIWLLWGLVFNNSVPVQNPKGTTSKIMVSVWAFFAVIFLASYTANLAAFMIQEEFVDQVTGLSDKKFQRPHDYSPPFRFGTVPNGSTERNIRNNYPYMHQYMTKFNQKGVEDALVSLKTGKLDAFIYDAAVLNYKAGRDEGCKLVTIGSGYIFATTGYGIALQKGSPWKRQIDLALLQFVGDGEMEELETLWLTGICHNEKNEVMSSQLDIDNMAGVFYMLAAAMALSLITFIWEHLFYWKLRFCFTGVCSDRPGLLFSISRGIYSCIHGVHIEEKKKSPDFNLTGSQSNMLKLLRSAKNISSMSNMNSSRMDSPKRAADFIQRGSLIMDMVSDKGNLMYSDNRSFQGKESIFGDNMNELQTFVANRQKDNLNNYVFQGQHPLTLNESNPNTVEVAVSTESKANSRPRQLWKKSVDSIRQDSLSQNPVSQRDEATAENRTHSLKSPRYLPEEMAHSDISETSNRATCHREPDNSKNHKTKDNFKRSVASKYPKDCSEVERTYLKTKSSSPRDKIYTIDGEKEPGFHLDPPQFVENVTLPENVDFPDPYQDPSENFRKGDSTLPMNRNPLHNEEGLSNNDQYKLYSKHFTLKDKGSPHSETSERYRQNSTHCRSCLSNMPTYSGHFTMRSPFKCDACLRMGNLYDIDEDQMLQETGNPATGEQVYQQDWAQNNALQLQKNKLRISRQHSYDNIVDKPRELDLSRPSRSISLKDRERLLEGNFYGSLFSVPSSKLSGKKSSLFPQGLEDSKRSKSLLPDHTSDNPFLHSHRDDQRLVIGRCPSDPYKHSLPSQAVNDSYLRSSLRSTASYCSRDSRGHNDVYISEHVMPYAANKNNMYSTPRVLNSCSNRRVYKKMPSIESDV
smiles,measurement,setting,value
"Cc1ccc(COC(=O)N2CC[C@H](CNc3nccn4cnnc34)C(F)(F)C2)cc1 [Compound E1-1.2, (+)-R-4-methylbenzyl 4-(([1,2,4]triazolo[4,3-a]pyrazin-8-ylamino)methyl)-3,3-difluoropiperidine-1-carboxylate]",IC50,cloned human NR1/NR2A,> 10 µM
same,partial effect on [3H] MK-801 binding,[1],40%
same,"latency to death, change vs vehicle controls",[2],+35%
same,"number of deaths, change vs vehicle controls",[2],−91%
same,activity on electroconvulsive threshold,[3],robust anticonvulsant activity
